The nature of experiment [1]: Antagonist activity at CRTH2 in human eosinophils assessed as inhibition of PGD2-induced shape change by gated autofluorescence forward scatter analysis.
The nature of experiment [2]: Partial antagonist activity at CRTH2 in human eosinophils assessed as inhibition of PGD2-induced shape change by FACS analysis. (In flow cytometry, cells or beads pass a laser one at a time.)

One may read the IC50 as the concentration at which inhibition is half-maximal. As usually defined, the EC50 is the concentration that produces a half-maximal response.

Each structure is given as a SMILES string.

For the molecule `CN(C)c1nc(Cc2ccc(NC(=O)c3ccc(C(F)(F)F)cc3)cc2)nc(N(C)C)c1CC(=O)O` [2-(4,6-bis(dimethylamino)-2-(4-(4-(trifluoromethyl)benzamido)benzyl)pyrimidin-5-yl)acetic acid], the IC50 in experiment [1] turned out to be 0.626 µM.
For the molecule `COc1ccc2c(c1)c(CC(=O)O)c(C)n2C(=O)c1ccc(Cl)cc1` [indometacin], the EC50 in experiment [2] stood at 0.389 µM.
As to `C[C@H](Oc1ccc(F)cc1-c1ccc(C(=O)N2CCCC2(C)C)c(Cl)c1)C(=O)O`, in experiment [1], the IC50 is 0.044 µM.

Source of the values: BindingDB's records for doi:10.1021/jm2013997 (Oxagen, 2012).
